Measurements from patent publication EP4775208A1, “USE OF PRMT5 INHIBITOR IN TREATMENT OF TUMORS OR CANCERS” (Apeiron Therapeutics (Hong Kong) Ltd., priority 2023, dated 2025).

Test system: Human glioma U87-luc cells
Experiment: In vivo efficacy in U87 orthotopic xenograft model (bioluminescence imaging)
Parameters: species or system BALB/c nude mice
Conditions: for Bioluminescence Signal (photons/sec), Mean: 30 mg/kg, PO, QD, U87-luc orthotopic
Experimental: V. In Vivo Efficacy of Compounds of the Present Disclosure in U87 Orthotopic Xenograft Models
Cell Culture: Human glioma U87-luc cells (Caliper-124577) were cultured as monolayers in vitro. The cells were maintained in EMEM supplemented with 10% fetal bovine serum (FBS), 100 U/mL penicillin, and 100 µg/mL streptomycin in an incubator at 37°C with 5% CO2. Routine subculturing was performed twice weekly using trypsin-EDTA. When the cells reached 80-90% confluence and the required cell number was achieved, the cells were harvested, counted, and prepared for inoculation.
Animals: Female BALB/c nude mice, weighing 18-20 g. A total of 50 mice were obtained (target study size of 24 mice, with an […]). The animals were provided by Beijing Vital River Laboratory Animal Technology Co., Ltd.
Tumor Inoculation: Prior to cell inoculation, each nude mouse was anesthetized via intraperitoneal injection of 1.25% avertin at a dose of 20 µL/g. The anesthetized mouse was fixed onto a stereotaxic instrument. The scalp was disinfected with 70% ethanol and covered with a sterile drape. A midline longitudinal incision (approximately 1 cm) was made to expose the skull. A small hole was drilled using a cranial drill at the coordinates 2 mm right and 0.5 mm anterior to the bregma. Using a microsyringe, 3 µL of U87-luc cell suspension (3.0×10^5 cells in PBS containing 20% Matrigel) was injected into the hole at a depth of 3.5 mm from the skull surface. The burr hole was sealed with tissue adhesive (or bone wax), the incision was sutured, and the skin was disinfected with povidone-iodine solution. The animals were kept warm on a heating pad during the recovery period and monitored until fully awake before being returned to their cages.
Analgesia: For analgesia, Meloxicam (3 mg/kg) was injected subcutaneously 30 minutes prior to surgery and 24 hours post-surgery.
Bioluminescence Imaging: Mice were weighed and administered D-luciferin (150 mg/kg) via intraperitoneal injection. Ten minutes post-injection, the mice were anesthetized using a mixture of oxygen and isoflurane. Once fully anesthetized, the animals were transferred to the IVIS Lumina III in vivo imaging system for detection. Bioluminescence measurements were acquired for all mice at 13 minutes post-injection. Whole-body bioluminescence, including metastatic tumors, was measured and images were captured. Imaging was performed on Day 7 post-inoculation and weekly thereafter following grouping and dosing (5 time points in total). The data are presented as bioluminescence signal values.
Animal Grouping: Seven days after cell inoculation, 24 mice were selected from the total of 50 mice based on their bioluminescence values. Using an Excel-based stratified randomization procedure, the mice were divided into 3 groups (8 mice per group): the Vehicle group, the 15 mg/kg BID group, and the 30 mg/kg QD group.
Experimental Endpoint: The experimental endpoint is animal survival.
Monitoring and Data Analysis: Animals were monitored daily, and the time of death was recorded. […] If an animal's health deteriorated or it became moribund (characterized by significant weight loss >20%, inability to eat or drink normally, difficulty moving, or paralysis), it was considered a mortality event and immediately euthanized via CO2 inhalation.
The Median Survival Time (MST, days) was calculated for each group. The Increase in Life-Span (ILS) was calculated by comparing the MST of the treatment group to that of the model control group, expressed as a percentage increase over the control group. The calculation is as follows: ILS(%) = (MSTt−MSTv)/MSTv × 100 [formula] Where: • MSTt: Median Survival Time of the treatment group • MSTv: Median Survival Time of the Vehicle group
Tumor Growth Monitoring: Bioluminescence signal intensity was used to monitor intracranial tumor growth. Bioluminescence imaging was performed once or twice weekly. […]

SMILES: CN(C(=O)c1ccc2nc(N)c3cncn3c2c1)[C@@H]1COc2cc(C(F)(F)F)ccc21 [Example 107, (S)-4-amino-N-methy 1-N-(6-(trifluoromethy 1)-2,3-dihydrobenzofuran-3-yl)imidazo[1,5-a]quinoxaline-8-carboxamide]
- Tumor Growth Inhibition (TGI) rate (30 mg/kg once daily (QD) for 28 days, U87MG orthotopic mouse xenograft): exceeding 100%
- Bioluminescence Signal (photons/sec), Mean (day 0): 5.837E+06 photons/sec
- Bioluminescence Signal (photons/sec), Mean (day 7): 1.419E+06 photons/sec
- Bioluminescence Signal (photons/sec), Mean (day 14): 1.930E+06 photons/sec
- Bioluminescence Signal (photons/sec), Mean (day 21): 1.968E+06 photons/sec
- Bioluminescence Signal (photons/sec), Mean (day 28): 2.412E+06 photons/sec
